Reference: US20110124626A1, “BENZAZEPINE DERIVATIVES AND THEIR USE AS HISTAMINE H3 ANTAGONISTS” (TAKEDA PHARMACEUTICAL COMPANY LIMITED, priority 2008, published 2011)
pIC50: −log10 of the molar value.

Molecular target: T1, human H3 receptor (Homo sapiens, UniProt Q9Y5N1)
T1 construct: expressed in transfected cells
Experiment: In vitro H3 binding assay (3H-N-α-methyl-histamine competition binding)
Conditions: membranes of CHO-K1 cells expressing human H3 receptor; 2 nM 3H-NαMH; read-out: hH3 binding IC50
Method: The ability of compounds to bind to the H3 receptor was determined by measuring the reduction in tritiated N-α-methyl-histamine (^3H—NαMH) binding in a competition binding assay. Changes in the levels of bound radio-label were monitored by scintillation counting with a Trilux Microbeta (Perkin Elmer).
Membranes were prepared from CHO-K1 cells stably expressing human H3 receptor; routinely grown as monolayers in Ham's F12 medium (Invitrogen) supplemented with 10% Foetal Clone 111 (Hyclone), 500 μg/ml G418 (Invitrogen), 5 μg/ml blasticidine S (Invivogen) and […] Gentamicin (Sigma) in 5% CO2 at 37° C. Cells were grown to 80-95% confluency, rinsed once with 1×PBS (Invitrogen) and detached by incubating with 1×PBS containing 0.02% EDTA (Sigma) for 10 minutes at room temperature. Cells were collected by centrifugation at 900×g, 4° C. for 10 minutes. Cells were rinsed once with 1×PBS and re-suspended in ice cold homogenisation buffer (50 mM Tris-HCl (pH 7.4), 2.5 mM EDTA, 5 mM MgCl2, 200 mM Sucrose) at 1×10^7 cells/ml and kept on ice. Cells were homogenised on ice and debris removed by centrifugation at 500×g, 4° C. for 5 minutes. The resulting supernatant was centrifuged at 75,600×g, 4° C. for 60 minutes. Membranes were suspended in homogenisation buffer, protein concentration was determined (BCA Protein Assay kit (Pierce)), diluted to 2.2 mg/ml, dispensed into 1 ml aliquots and stored at −80° C.
Membranes were thawed on ice, sonicated with 4 cycles of 20 pulses (50% amplitude, 0.5 pulse) (UP200S Hielscher) on ice, diluted in assay buffer (50 mM Tris-HCl (pH7.4), 5 mM MgCl2) to 62.5 μg/ml. Compound was serially diluted in DMSO before being diluted 1:10 with assay buffer. 5 μg of membrane in 80 μl of assay buffer was added per well of a 96 well polystyrene plate (Corning). […] of compound was added per well. The assay was initiated by the addition of 10 μl of 20 nM ^3H—NαMH per well and incubated for one hour at room temperature with shaking. Total binding was determined in the presence of 1% DMSO and non-specific binding was determined by the inclusion of 1 μM R-α-methyl-histamine (RαMH). Incubations were then filtered through filtermat A (Perkin Elmer) and washed three times with assay buffer. Filtermats were dried at 42° C. for two hours, scintillant added and the level of bound radioactivity determined.
IC50 values for compounds were determined from seven point log scale dose-response studies and represent the concentration of compound required to inhibit 50% of the specific binding of 2 nM ^3H—NαMH (difference between total and non-specific binding). Curves were generated using the average of duplicate wells for each data point and analyzed using nonlinear regression of sigmoidal dose response (variable slope).

T1 sequence (Q9Y5N1 whole entry): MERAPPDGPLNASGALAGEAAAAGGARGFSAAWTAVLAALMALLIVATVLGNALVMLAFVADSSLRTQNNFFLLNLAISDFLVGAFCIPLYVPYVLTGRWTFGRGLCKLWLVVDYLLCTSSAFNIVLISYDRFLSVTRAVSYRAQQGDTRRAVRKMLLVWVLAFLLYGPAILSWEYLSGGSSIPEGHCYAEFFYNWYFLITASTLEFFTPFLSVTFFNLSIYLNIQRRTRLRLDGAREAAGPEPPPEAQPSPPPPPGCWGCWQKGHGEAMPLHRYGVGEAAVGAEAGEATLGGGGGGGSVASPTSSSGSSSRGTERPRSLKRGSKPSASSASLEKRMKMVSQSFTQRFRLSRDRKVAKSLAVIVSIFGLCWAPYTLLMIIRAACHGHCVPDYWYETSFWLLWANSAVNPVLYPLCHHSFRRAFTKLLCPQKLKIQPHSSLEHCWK

Row | pIC50 | Structure (SMILES)
1 | 9.00 | O=C(NCc1ccc2c(c1)CCN(C1CCC1)CC2)c1cccnc1 [Example 120, N-((3-cyclobutyl-2,3,4,5-tetrahydro-1H-benzo[d]azepin-7-yl)methyl)nicotinamide]
2 | 7.52 | CO/N=C(\CCc1ccccc1)c1ccc2c(c1)CCN(C1CCC1)CC2 [Example 131, 1-(3-cyclobutyl-2,3,4,5-tetrahydro-1H-benzo[d]azepin-7-yl)-3-phenylpropan-1-one O-methyl oxime]
3 | 8.22 | O/N=C(\CCc1ccccc1)c1ccc2c(c1)CCN(C1CCC1)CC2 [Example 132, 1-(3-cyclobutyl-2,3,4,5-tetrahydro-1H-benzo[d]azepin-7-yl)-3-phenylpropan-1-one oxime]
4 | 7.59 | Cn1nccc1CCC(O)c1ccc2c(c1)CCN(C1CCC1)CC2 (stereo not shown) [Example 137, 1-(3-cyclobutyl-2,3,4,5-tetrahydro-1H-benzo[d]azepin-7-yl)-3-(1-methyl-1H-pyrazol-5-yl)propan-1-ol]
5 | 7.62 | O=C(C1CCC1)N1CCC(O)(Cc2ccc3c(c2)CCN(C2CCC2)CC3)CC1 [Example 155, cyclobutyl(4-((3-cyclobutyl-2,3,4,5-tetrahydro-1H-benzo[d]azepin-7-yl)methyl)-4-hydroxypiperidin-1-yl)methanone]
6 | 8.40 | Cc1nc(C)c(C(=O)NCc2ccc3c(c2)CCN(C2CCC2)CC3)s1 [Example 268, N-((3-cyclobutyl-2,3,4,5-tetrahydro-1H-benzo[d]azepin-7-yl)methyl)-2,4-dimethylthiazole-5-carboxamide]
7 | 8.60 | O=C(NCc1ccc2c(c1)CCN(C1CCOC1)CC2)c1ccc(N2CCCC2)nc1 (stereo not shown) [Example 269, 6-(pyrrolidin-1-yl)-N-((3-(tetrahydrofuran-3-yl)-2,3,4,5-tetrahydro-1H-benzo[d]azepin-7-yl)methyl)nicotinamide]
8 | 8.05 | COc1ccc(NC(=O)Cc2ccc3c(c2)CCN(C2CCC2)CC3)cn1 [Example 274, 2-(3-cyclobutyl-2,3,4,5-tetrahydro-1H-benzo[d]azepin-7-yl)-N-(6-methoxypyridin-3-yl)acetamide]
9 | 8.15 | COc1nc(C)c(C(=O)NCc2ccc3c(c2)CCN(C2CCC2)CC3)s1 [Example 275, N-((3-cyclobutyl-2,3,4,5-tetrahydro-1H-benzo[d]azepin-7-yl)methyl)-2-methoxy-4-methylthiazole-5-carboxamide]
10 | 7.72 | Cc1nocc1C(=O)NCc1ccc2c(c1)CCN(C1CCC1)CC2 [Example 276, N-((3-cyclobutyl-2,3,4,5-tetrahydro-1H-benzo[d]azepin-7-yl)methyl)-3-methylisoxazole-4-carboxamide]
11 | 9.52 | O=C(NCc1ccc2c(c1)CCN(C1CCC1)CC2)c1ccc(NCC2CC2)nc1 [Example 280, N-[(3-cyclobutyl-2,3,4,5-tetrahydro-1H-3-benzazepin-7-yl)methyl]-6-[(cyclopropylmethyl)amino]pyridine-3-carboxamide]
12 | 9.10 | O=C(NCc1ccc2c(c1)CCN(C1CCC1)CC2)c1ccc(O[C@H]2CCOC2)nc1 [Example 281, N-[(3-cyclobutyl-2,3,4,5-tetrahydro-1H-3-benzazepin-7-yl)methyl]-6-[(3S)-tetrahydrofuran-3-yloxy]pyridine-3-carboxamide]
13 | 9.00 | O=C(NCc1ccc2c(c1)CCN(C1CCC1)CC2)c1ccc(NC2CCOC2)nc1 (stereo not shown) [Example 282, N-[(3-cyclobutyl-2,3,4,5-tetrahydro-1H-3-benzazepin-7-yl)methyl]-6-(tetrahydrofuran-3-ylamino)pyridine-3-carboxamide]
14 | 9.00 | O=C(NCc1ccc2c(c1)CCN(C1CC(O)C1)CC2)c1ccc(N2CCCC2)nc1 (stereo not shown) [Example 287, N-((3-(3-hydroxycyclobutyl)-2,3,4,5-tetrahydro-1H-benzo[d]azepin-7-yl)methyl)-6-(pyrrolidin-1-yl)nicotinamide]
15 | 8.52 | C[C@H](O)CNc1ccc(C(=O)NCc2ccc3c(c2)CCN(C2CCC2)CC3)cn1 [Example 290, (S)—N-((3-cyclobutyl-2,3,4,5-tetrahydro-1H-benzo[d]azepin-7-yl)methyl)-6-(2-hydroxypropylamino)nicotinamide]
16 | 8.10 | O=C(Cc1ccc2c(c1)CCN(C1CCC1)CC2)Nc1ccc(N2CCCC2)nc1 [Example 294, 2-(3-cyclobutyl-2,3,4,5-tetrahydro-1H-3-benzazepin-7-yl)-N-[6-(pyrrolidin-1-yl)pyridin-3-yl]acetamide]
17 | 8.30 | O=C(NCc1ccc2c(c1)CCN(C1CCOC1)CC2)c1ccc(N2CC[C@H](F)C2)nc1 (stereo partly drawn) [Example 300, 6-((S)-3-fluoropyrrolidin-1-yl)-N-((3-(tetrahydrofuran-3-yl)-2,3,4,5-tetrahydro-1H-benzo[d]azepin-7-yl)methyl)nicotinamide]
18 | 8.52 | CNc1ncc(C(=O)NCc2ccc3c(c2)CCN(C2CCC2)CC3)cn1 [Example 302, N-((3-cyclobutyl-2,3,4,5-tetrahydro-1H-benzo[d]azepin-7-yl)methyl)-2-(methylamino)pyrimidine-5-carboxamide]
19 | 9.00 | CN(Cc1ccc2c(c1)CCN(C1CCC1)CC2)C(=O)c1cnc(N2CCCC2)nc1 [Example 313, N-((3-cyclobutyl-2,3,4,5-tetrahydro-1H-benzo[d]azepin-7-yl)methyl)-N-methyl-2-(pyrrolidin-1-yl)pyrimidine-5-carboxamide]
20 | 8.70 | COCC(C)(C)Oc1ccc(C(=O)NCc2ccc3c(c2)CCN(C2CCC2)CC3)cn1 [Example 315, N-[(3-cyclobutyl-2,3,4,5-tetrahydro-1H-3-benzazepin-7-yl)methyl]-6-[(1-methoxy-2-methylpropan-2-yl)oxy]pyridine-3-carboxamide]
21 | 9.05 | C[C@@H](O)CN(C)c1ccc(C(=O)NCc2ccc3c(c2)CCN(C2CCC2)CC3)cn1 [Example 316, (R)—N-((3-cyclobutyl-2,3,4,5-tetrahydro-1H-benzo[d]azepin-7-yl)methyl)-6-((2-hydroxypropyl)(methyl)amino)nicotinamide]
22 | 7.21 | O=C(NCc1ccc2c(c1)CCN(C1CCC1)CC2)[C@H]1C[C@@H](OC2CCOCC2)C1 [Example 319, cis-N-((3-cyclobutyl-2,3,4,5-tetrahydro-1H-benzo[d]azepin-7-yl)methyl)-3-(tetrahydro-2H-pyran-4-yloxy)cyclobutanecarboxamide]
